Legend:
[1] = Carotenoid content in fish flesh of silver salmon by HPLC; format: in vivo, Oncorhynchus kisutch; settings: for Ratio to astaxanthin: silver salmon fish flesh; for Ratio to astaxanthin / Content in fish flesh: 6 months; for Content in fish flesh / concentration at 6 months: silver salmon, average of 10 fish; for concentration at 6 months: silver salmon (Oncorhynchus kisutch), fish flesh, oral
Description: In the examples, the quantification of the carotenoid colorant was performed using high performance liquid chromatography (HPLC). Two columns of Wakosil-II 5 SIL-100 φ4.6×250 mm (produced by Wako Pure Chemical Industries, Ltd.) were connected to each other. An n-hexane:tetrahydrofuran:methanol (40:20:1) mixed solution was used as a mobile phase. A constant room temperature and a flow rate of 1.0 ml/min were used. The detection was performed at a wavelength of 470 nm. The feed or fish flesh was milled, and then the colorant was extracted with a tetrahydrofuran:methanol (20:1) mixed solution. The colorant was appropriately diluted with the mobile phase and analyzed by HPLC. 300 silver salmons (Oncorhynchus kisutch) each weighing about 200 g were cultivated as a test division of being fed with the above-described fermented product, and another 300 silver salmons each weighing about 200 g were cultivated as a test division of being fed with the above-described synthetic product. The salmons were fed in satiation in a marine fish pen for 6 months. After the 6 months of cultivating, 10 fish of each test division were weighed. […] The fish were immediately killed by cutting medulla and frozen for preservation. After being thawed, the fish flesh was milled by a coffee mill, and a part thereof was put into a polyethylene bag to measure the color tone thereof by a spectrometer CM-508i (Minolta). […] From a part of the milled fish flesh, the carotenoid colorant was extracted, and analyzed in terms of the content of each carotenoid compound by HPLC.

[2] = Carotenoid content in fish flesh of rainbow trout by HPLC; format: in vivo, Oncorhynchus mykiss; settings: for Ratio to astaxanthin: rainbow trout fish flesh; for Ratio to astaxanthin / Content in fish flesh: 3 months; for Content in fish flesh / concentration at 3 months: rainbow trout, average of 12 fish; for concentration at 3 months: rainbow trout (Oncorhynchus mykiss), fish flesh, oral
Description: In the examples, the quantification of the carotenoid colorant was performed using high performance liquid chromatography (HPLC). Two columns of Wakosil-II 5 SIL-100 φ4.6×250 mm (produced by Wako Pure Chemical Industries, Ltd.) were connected to each other. An n-hexane:tetrahydrofuran:methanol (40:20:1) mixed solution was used as a mobile phase. A constant room temperature and a flow rate of 1.0 ml/min were used. The detection was performed at a wavelength of 470 nm. The feed or fish flesh was milled, and then the colorant was extracted with a tetrahydrofuran:methanol (20:1) mixed solution. The colorant was appropriately diluted with the mobile phase and analyzed by HPLC. 50 rainbow trouts (Oncorhynchus mykiss) each weighing about 100 g were cultivated in a water tank as a test division of being fed with the above-described fermented product, and another 50 rainbow trouts each weighing about 100 g were cultivated in a water tank as a test division of being fed with the above-described synthetic product. The trouts of each test division were fed in satiation in fresh water for 3 months. After the 3 months of cultivating, 12 fish of each test division were weighed. […] The fish were immediately killed by cutting medulla. […] After the measurement, the fish flesh was frozen for preservation. After being thawed, the fish flesh of the 12 fish of each test division was analyzed in terms of the content of each carotenoid compound.

[3] = Carotenoid content in fish flesh of Atlantic salmon by HPLC; format: in vivo, Salmo salar; settings: for Ratio to astaxanthin: Atlantic salmon fish flesh; for Ratio to astaxanthin / Content in fish flesh: 12 months; for Content in fish flesh / concentration at 12 months: Atlantic salmon, flesh frozen 1 month, average of 20 fish; for concentration at 12 months: Atlantic salmon (Salmo salar), oral
Description: In the examples, the quantification of the carotenoid colorant was performed using high performance liquid chromatography (HPLC). Two columns of Wakosil-II 5 SIL-100 φ4.6×250 mm (produced by Wako Pure Chemical Industries, Ltd.) were connected to each other. An n-hexane:tetrahydrofuran:methanol (40:20:1) mixed solution was used as a mobile phase. A constant room temperature and a flow rate of 1.0 ml/min were used. The detection was performed at a wavelength of 470 nm. The feed or fish flesh was milled, and then the colorant was extracted with a tetrahydrofuran:methanol (20:1) mixed solution. The colorant was appropriately diluted with the mobile phase and analyzed by HPLC. 400 Atlantic salmons (Salmo salar) each weighing about 300 g were cultivated as a test division of being fed with the above-described fermented product, and another 400 Atlantic salmons each weighing about 300 g were cultivated as a test division of being fed with the above-described synthetic product. The salmons were fed in satiation in a marine fish pen for 12 months. After the 12 months of cultivating, 20 fish of each test division were landed and weighed. […] The fish were immediately killed by cutting medulla, and the fish flesh was measured in terms of the color tone by a spectrometer. […] After the measurement, the fish flesh was frozen for preservation for 1 month. After being thawed, the fish flesh of the 20 fish of each test division was analyzed in terms of the content of each carotenoid compound.

[4] = Carotenoid content in fish flesh of king salmon by HPLC; format: in vivo, Oncorhynchus tshawytscha; settings: for Ratio to astaxanthin: king salmon fish flesh; for Ratio to astaxanthin / Content in fish flesh: 3 months; for Content in fish flesh / concentration at 3 months: king salmon, flesh frozen 1 month, average of 15 fish; for concentration at 3 months: king salmon (Oncorhynchus tshawytscha), oral
Description: In the examples, the quantification of the carotenoid colorant was performed using high performance liquid chromatography (HPLC). Two columns of Wakosil-II 5 SIL-100 φ4.6×250 mm (produced by Wako Pure Chemical Industries, Ltd.) were connected to each other. An n-hexane:tetrahydrofuran:methanol (40:20:1) mixed solution was used as a mobile phase. A constant room temperature and a flow rate of 1.0 ml/min were used. The detection was performed at a wavelength of 470 nm. The feed or fish flesh was milled, and then the colorant was extracted with a tetrahydrofuran:methanol (20:1) mixed solution. The colorant was appropriately diluted with the mobile phase and analyzed by HPLC. 100 king salmons (Oncorhynchus tshawytscha) each weighing about 200 g were cultivated as a test division of being fed with the above-described fermented product, and another 100 king salmons each weighing about 200 g were cultivated as a test division of being fed with the above-described synthetic product. The salmons were fed in satiation in a marine fish pen for 3 months. After the 3 months of cultivating, 15 fish of each test division were sampled and weighed. […] The fish were immediately killed by cutting medulla. […] After the measurement, the fish flesh was frozen for preservation for 1 month. After being thawed, the fish flesh of the fish of each test division was analyzed in terms of the content of each carotenoid compound.

| Molecule | Ratio to astaxanthin ([1]; Fermented product division) | Content in fish flesh ([1]; Fermented product division) | Content in fish flesh ([1]; Synthetic product division) | Ratio to astaxanthin ([2]; Fermented product division) | Content in fish flesh ([2]; Fermented product division) | Content in fish flesh ([2]; Synthetic product division) | Ratio to astaxanthin ([3]; Fermented product division) | Content in fish flesh ([3]; Fermented product division) | Content in fish flesh ([3]; Synthetic product division) | Ratio to astaxanthin ([4]; Fermented product division) | Content in fish flesh ([4]; Fermented product division) | Content in fish flesh ([4]; Synthetic product division) | concentration at 6 months ([1]; 43.2 mg/kg feed, Fermented product division) [ng/g] | concentration at 6 months ([1]; 44.3 mg/kg feed, Synthetic product division) [ng/g] | concentration at 3 months ([2]; 63.2 mg/kg feed, Fermented product division) [ng/g] | concentration at 3 months ([2]; 64.6 mg/kg feed, Synthetic product division) [ng/g] | concentration at 12 months ([3]; 79.8 mg/kg feed, Fermented product division) [ng/g] | concentration at 12 months ([3]; 81.6 mg/kg feed, Synthetic product division) [ng/g] | concentration at 3 months ([4]; 70.3 mg/kg feed, Synthetic product division) [ng/g] | concentration at 3 months ([4]; 72.7 mg/kg feed, Fermented product division) [ng/g] |
| --- | --- | --- | --- | --- | --- | --- | --- | --- | --- | --- | --- | --- | --- | --- | --- | --- | --- | --- | --- | --- |
| CC1=C(/C=C/C(C)=C/C=C/C(C)=C/C=C/C=C(C)/C=C/C=C(C)/C=C/C2=C(C)C(=O)[C@@H](O)CC2(C)C)C(C)(C)CCC1 [3-hydroxyequinenone] | 0.2 or less % | 0.02 or less mg/kg | 0.02 or less mg/kg | 0.6 or less % | 0.02 or less mg/kg | 0.02 or less mg/kg | 0.5 or less % | 0.02 or less mg/kg | 0.02 or less mg/kg | 0.5 or less % | 0.02 or less mg/kg | 0.02 or less mg/kg |  |  |  |  |  |  |  |  |
| CC1=C(/C=C/C(C)=C/C=C/C(C)=C/C=C/C=C(C)/C=C/C=C(C)/C=C/C2=C(C)C(=O)[C@@H](O)CC2(C)C)C(C)(C)C[C@H](O)C1 [Adonixanthin] | 23.1% | 2.4 mg/kg | 0.02 or less mg/kg | 2.9% | 0.1 mg/kg | 0.02 or less mg/kg | 4.9% | 0.2 mg/kg | 0.02 or less mg/kg | 6.5% | 0.3 mg/kg | 0.02 or less mg/kg |  |  |  |  |  |  |  |  |
| CC1=C(/C=C/C(C)=C/C=C/C(C)=C/C=C/C=C(C)/C=C/C=C(C)/C=C/C2=C(C)C(=O)[C@@H](O)CC2(C)C)C(C)(C)C[C@H](O)C1=O [Astaxanthin] | 100% |  |  | 100% |  |  | 100% |  |  | 100% |  |  | 10400 | 12700 | 3400 | 6300 | 4100 | 6200 | 7200 | 4600 |
| CC1=C(/C=C/C(C)=C/C=C/C(C)=C/C=C/C=C(C)/C=C/C=C(C)/C=C/C2=C(C)C(=O)CCC2(C)C)C(C)(C)CCC1=O [Canthaxanthin] | 1.0% | 0.1 mg/kg | 0.02 or less mg/kg | 11.8% | 0.4 mg/kg | 0.02 or less mg/kg | 9.8% | 0.4 mg/kg | 0.02 or less mg/kg | 6.5% | 0.3 mg/kg | 0.02 or less mg/kg |  |  |  |  |  |  |  |  |
| CC1=C(/C=C/C(C)=C/C=C/C(C)=C/C=C/C=C(C)/C=C/C=C(C)/C=C/C2=C(C)C(=O)CCC2(C)C)C(C)(C)CCC1 [Equinenone] | 0.2 or less % | 0.02 or less mg/kg | 0.02 or less mg/kg | 0.6 or less % | 0.02 or less mg/kg | 0.02 or less mg/kg | 0.5 or less % | 0.02 or less mg/kg | 0.02 or less mg/kg | 0.5 or less % | 0.02 or less mg/kg | 0.02 or less mg/kg |  |  |  |  |  |  |  |  |
| CC1=C(/C=C/C(C)=C/C=C/C(C)=C/C=C/C=C(C)/C=C/C=C(C)/C=C/C2=C(C)C(=O)[C@@H](O)CC2(C)C)C(C)(C)CCC1=O [Phoenicoxanthin] | 11.5% | 1.2 mg/kg | 0.02 or less mg/kg | 67.6% | 2.3 mg/kg | 0.02 or less mg/kg | 41.5% | 1.7 mg/kg | 0.02 or less mg/kg | 45.7% | 2.1 mg/kg | 0.02 or less mg/kg |  |  |  |  |  |  |  |  |
| CC1=C(/C=C/C(C)=C/C=C/C(C)=C/C=C/C=C(C)/C=C/C=C(C)/C=C/C2=C(C)CCCC2(C)C)C(C)(C)CCC1 [β-carotin] | 0.2 or less % | 0.02 or less mg/kg | 0.02 or less mg/kg | 0.6 or less % | 0.02 or less mg/kg | 0.02 or less mg/kg | 0.5 or less % | 0.02 or less mg/kg | 0.02 or less mg/kg | 0.5 or less % | 0.02 or less mg/kg | 0.02 or less mg/kg |  |  |  |  |  |  |  |  |
| Asteroidenone | 1.9% | 0.2 mg/kg | 0.02 or less mg/kg | 2.9% | 0.1 mg/kg | 0.02 or less mg/kg | 2.4% | 0.1 mg/kg | 0.02 or less mg/kg | 2.2% | 0.1 mg/kg | 0.02 or less mg/kg |  |  |  |  |  |  |  |  |
